Measured values reported in patent US10596239B2, “Peptide mixture” (TARGOVAX ASA, priority 2013, dated 2020).
Where “and” joins values, the source holds several entries; their conditions need not be identical. Equal values may be shown once.

Key:
splenocytes = assay: Splenocyte proliferation assay (3H-thymidine) following subcutaneous vaccination of mice with TG02; type: cell-based, BALB/c mice; details: 1 μg/200 μL ConA, 5 days
Procedure: In this Example, mice were repeatedly vaccinated subcutaneously with TG02, in order to analyse the immune response. Following the vaccination, splenocytes were harvested, and the proliferative response of the splenocytes was measured.
The study was conducted with 3 groups, each compromising 10 female BALB/c mice. The start of the study was performed on two separate days on which 5 of the animals per group were treated. Therefore the groups were divided into part I and part II. The animals were treated subcutaneously at different time points (Table 12).
In all groups the test item was administered at repeated time points (Table 15) by subcutaneous injection between the nape of the neck and the shoulder. The application volume for all groups was 0.1 mL (0.80 mg TG02).
The spleen of all animals was removed, transferred to cell culture medium (RPMI 1640 medium supplemented with 10% FCS, 100 U/ml Penicillin, 100 μg/mL Streptomycin, 2 mM L-Glutamine, and 50 μM beta-mercaptoethanol) and stored on ice. All steps were performed sterile and cells were kept on ice.
A single cell suspension from splenic cells was generated using a cell strainer. After centrifugation (350 g, 5 min, 5±3° C.), supernatant was removed and the cell pellet was resuspended in ACK buffer and incubated for 5 min at RT. 10 mL cell culture medium was added. The samples were left 5 min on bench top to let the cell debris sediment. The suspension above the cell debris was transferred into another tube and was centrifuged (350 g, 5 min, 5±3° C.). The supernatant was removed and the cell pellet was resuspended in 10 mL cell culture medium. After counting of cells, 0.2 Mio cells were seeded in a 96 well plate (180 μL per well; 1,1 *10^6 cells/mL). 9 replicates were plated on each plate for each spleen. • (1) 1 plate for harvesting of supernatant for cytokine measurement after 24 h (results not shown) • (2) 1 plate for harvesting of supernatant for cytokine measurement after 48 h (results not shown) • (3) 1 plate for the proliferation assay
The following stimulations were performed: • 3 replicates: unstimulated (addition of 20 μL cell culture medium) • 3 replicates: stimulation with 10 μM TG02 (8 peptides, 10 μM end concentration per peptide, addition in 20 μL cell culture medium) • 3 replicates: stimulation with 1 μg/200 μL, ConA (Concanavalin A) (addition of 1 μg ConA in 2.0 μL cell culture medium)
Incubation at 37° C. and 5% CO2 for 24 h (1), […] or 5 days (3).
Proliferation Assay • (3) After 5 days, 1 μCi/well ^3H-Thymidine was added to the samples, which were then incubated for 18 h at 37° C. and 5% CO2. The plates were then frozen at ≤−20° C.
Plates were thawed at RT. After washing off the harvester, the samples were transferred to a filter plate using the harvester followed by 5 washing steps using water. Filter plates were dried at RT overnight. A foil was stuck to the bottom of the filter plates and 20 μL scintillation fluid was added to the wells. After incubation of 1 h at RT, the samples were measured using a TopCount NXT and the stimulation index (SI) was calculated. SI=CPM of stimulated samples/CPM of control samples.

T cells = assay: 3-days T cell proliferation assay (3H-thymidine) after three rounds of in vitro stimulation of PBMC bulk cultures with RAS peptides; type: cell-based, human; details: bulk cultures stimulated three rounds with TG02 + 13R, 10 μM peptide
Procedure: In this example, Buffy coats were collected from 4 normal human donors (Buffy 1, Buffy 2, Buffy 3, and Buffy 4) and were cultured in vitro. The in vitro PBMCs were stimulated with a single RAS peptide or a mixture of RAS peptides, and T cell proliferation assays performed.
The procedure must be performed at room temperature until point 5. All handling of cells in the open is done in a vertical laminar flow hood. • 1. Rapidly transfer the vials, each vial with frozen PBMC from a buffy coat (Buffy 1, Buffy 2, Buffy 3, and Buffy 4), to a water bath at 37° C. • 2. Shake the vials manually at regular intervals (approx. 2-3 min.) and remove them from the water bath while some ice is still present. • 3. When all the ice is melted, transfer 1 ml of CellGro DC medium drop-wise to the cell suspension. • 4. Transfer the cell suspension to a 50 ml tube containing 20 ml of CellGro DC medium. • 5. Centrifuge cells at 500 G for 5 min at room temperature. • 6. Resuspend the cells in 5 ml CellGro DC medium, • 7. Count the number of viable cells using a Bürker chamber or KOVA Galsstic slides and adjust the cell concentration to 2×10^6cells/ml in complete CellGro DC medium (see recipe). Total cell numbers: Buffy 1-45×10^6, Buffy 2-27.5×10^6, Buffy 3-40.5×10^6, and Buffy 4-40.5×10^6 cells. b. Bulk Cultures for Increasing Number of RAS Peptide Reactive T Cells • 1. […]

## Concanavalin A [ConA]
splenocytes; Mean Mouse #4, vaccinated with TG02
  Counts per minute (CPM), Splenocytes + ConA, mean: 15,210 CPM
splenocytes; Mean Mouse #7, vaccinated with TG02
  Counts per minute (CPM), Splenocytes + ConA, mean: 6158 CPM
splenocytes; Mean Mouse #24, vaccinated with TG02 + ViscoGel
  Counts per minute (CPM), Splenocytes + ConA, mean: 8823 CPM
splenocytes; Mean Mouse #29, vaccinated with TG02 + ViscoGel
  Counts per minute (CPM), Splenocytes + ConA, mean: 10,935 CPM
splenocytes; Mouse #4, vaccinated with TG02
  Counts per minute (CPM), Splenocytes + ConA, replicate: 15,113 CPM and 12,612 CPM and 17,906 CPM
splenocytes; Mouse #7, vaccinated with TG02
  Counts per minute (CPM), Splenocytes + ConA, replicate: 5305 CPM and 6252 CPM and 6916 CPM
splenocytes; Mouse #24, vaccinated with TG02 + ViscoGel
  Counts per minute (CPM), Splenocytes + ConA, replicate: 7834 CPM and 8578 CPM and 10,057 CPM
splenocytes; Mouse #29, vaccinated with TG02 + ViscoGel
  Counts per minute (CPM), Splenocytes + ConA, replicate: 9480 CPM and 13,292 CPM and 10,033 CPM
splenocytes; Mouse #30 (last line, mean), vaccinated with TG02 + ViscoGel
  Counts per minute (CPM), Splenocytes + ConA, mean: 36,687 CPM
splenocytes; Mouse #30, vaccinated with TG02 + ViscoGel
  Counts per minute (CPM), Splenocytes + ConA, replicate: 32,205 CPM and 35,668 CPM and 42,149 CPM

## KLVVVGAGCVGKSALTI (listed as Homo sapiens) [13C]
T cells; Donor #3
  Counts per minute (CPM), APC + T cell + 13C, replicate: 27813 CPM and 32522 CPM and 28869 CPM
T cells; Mean Donor #3
  Counts per minute (CPM), APC + T cell + 13C, mean: 29735 CPM
